Reference: US4045564A, “Benzimidazole derivatives useful as gastric acid secretion inhibitors” (AB Hassle, priority 1974, dated 1977)

Assays:
[1] = tested on: pentagastrin induced gastric acid secretion; assay: Inhibition of pentagastrin induced gastric acid secretion in acute dog experiments with a modified perfusion technique (anaesthetized dog); format: in vivo; conditions: 10 mg/kg body weight, given into the duodenum in 0.5% Methocel suspension, pentagastrin 1-2 μg/kg
Experimental: The testing was performed in acute dog experiments with a modified perfusion technique.
The stomach of the anaesthetized dog was provided with one tube through the oesophagus for instillation of fluid and another tube via the ligated pylorus through duodenum for drainage of fluid. Saline was instilled in a volume of 5 ml/kg body weight, and the instillation fluid was changed every 15 minutes.
The samples collected were titrated to pH 7.0 with 0.04 N NaOH using a Radiometer automatic titrator, and the acid output per 15 minutes was calculated (collection periods).
Gastric acid secretion was induced by pentagastrin in 1-2 μg/kg.
The amount of active agent administered was 10 mg/kg body weight.

[2] = tested on: gastric acid secretion induced with pentagastrin; assay: Duration of the effect in conscious dog provided with a ventricel fistula, gastric acid secretion induced with pentagastrin; format: in vivo
Experimental: The compounds of Examples 1, 3, and 9 have also been tested with regard to the duration of the effect obtained in conscious dog provided with a ventricel fistula, the gastric acid secretion being induced with pentagastrin. The amount of gastric acid secreted before the administration of active agent was determined using a titrator, whereupon the gastric acid secretion was determined using a titrator after administration. In the table below the inhibition in % of basic secretion has been given for two different dose levels.

Structure (SMILES) | % inhibition of the pentagastrin induced gastric acid secretion [1] [%] | % inhibition of gastric acid secretion ([2]; 1 mg/kg, 1 hr) [%] | % inhibition of gastric acid secretion ([2]; 1 mg/kg, 2 hrs) [%] | % inhibition of gastric acid secretion ([2]; 1 mg/kg, 3 hrs) [%] | % inhibition of gastric acid secretion ([2]; 2 mg/kg, 1 hr) [%] | % inhibition of gastric acid secretion ([2]; 2 mg/kg, 2 hrs) [%] | % inhibition of gastric acid secretion ([2]; 2 mg/kg, 3 hrs) [%]
Cc1cccc2[nH]c(SCc3ccccn3)nc12 [Example 1, [2-pyridylmethylthio]-4-methyl-2-benzimidazole] | 89 | 20 | 25 | 25 | 50 | 60 | 65
CCc1ccc2nc(SCc3ccccn3)[nH]c2c1 [Example 3, 2-[2-pyridylmethylthio]-(5-ethyl)-benzimidazole] | 86 | 20 | 25 | 25 | 50 | 60 | 65
COc1ccc2[nH]c(SCc3ccccn3)nc2c1 [Example 5] | 40 |  |  |  |  |  | 
CCOC(=O)c1ccc2[nH]c(SCc3ccccn3)nc2c1 [Example 9] | 70 | 20 | 25 | 25 | 50 | 60 | 65
CC(=O)n1c(SCc2ccccn2)nc2ccccc21 [Example 16, 2-[2-pyridylmethylthio]-N-acetylbenzimidazole] | 80 |  |  |  |  |  | 
COC(=O)n1c(SCc2ccccn2)nc2ccccc21 [Example 17, 2-[2-pyridylmethylthio]-N-methoxycarbonylbenzimidazole] | 76 |  |  |  |  |  | 
